Source: ChEMBL document CHEMBL1201862, “PubChem BioAssay data set” (2004)
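The compound was tested at five concentrations on cells cultured in 96-well plates, with a 48-hour exposure period. Here, GI50 denotes the concentration required for 50% inhibition of growth.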 Activity calls are given as the source filed them. Rule as the data show it: active = GI50 up to about 1.1 µM and inactive = higher.

Columns and labels:
Assay in all cases: inhibition of tumour cell growth, NCI panel, 48 h
SF-295 = test system: SF-295
LOX IMVI = test system: LOX IMVI
Hs-578T = test system: Hs-578T
MOLT-4 = test system: MOLT-4
NCI-H23 = test system: NCI-H23
EKVX = test system: EKVX
UO-31 = test system: UO-31
NCI/ADR-RES = test system: NCI/ADR-RES
HCT-15 = test system: HCT-15
U-251 = test system: U-251
MDA-MB-435 = test system: MDA-MB-435
RXF 393 = test system: RXF 393
NCI-H522 = test system: NCI-H522
SK-MEL-5 = test system: SK-MEL-5
IGROV-1 = test system: IGROV-1
OVCAR-5 = test system: OVCAR-5
SK-OV-3 = test system: SK-OV-3
PC-3 = test system: PC-3
HCC 2998 = test system: HCC 2998
SNB-75 = test system: SNB-75
HT-29 = test system: HT-29
OVCAR-3 = test system: OVCAR-3
M14 = test system: M14
NCI-H226 = test system: NCI-H226
UACC-257 = test system: UACC-257
Malme-3M = test system: Malme-3M
DU-145 = test system: DU-145
MDA-N = test system: MDA-N
CCRF-CEM = test system: CCRF-CEM
OVCAR-4 = test system: OVCAR-4
786-0 = test system: 786-0
HOP-92 = test system: HOP-92
COLO 205 = test system: COLO 205
BT-549 = test system: BT-549
T47D = test system: T47D
HOP-62 = test system: HOP-62
MDA-MB-231 = test system: MDA-MB-231
SR = test system: SR
NCI-H460 = test system: NCI-H460
SNB-19 = test system: SNB-19
SW-620 = test system: SW-620
CAKI-1 = test system: CAKI-1
RPMI-8226 = test system: RPMI-8226
SK-MEL-28 = test system: SK-MEL-28
UACC-62 = test system: UACC-62
OVCAR-8 = test system: OVCAR-8
TK-10 = test system: TK-10
SN12C = test system: SN12C
SK-MEL-2 = test system: SK-MEL-2
SF-268 = test system: SF-268
A549 = test system: A549
SF-539 = test system: SF-539
HL-60 = test system: HL-60
MCF7 = test system: MCF7
HCT-116 = test system: HCT-116
A498 = test system: A498
ACHN = test system: ACHN
KM12 = test system: KM12
K562 = test system: K562

Structure (SMILES): Cc1ccc(S(=O)(=O)N/N=C/C(Br)=C(/Br)C(=O)O)cc1
- GI50 (SF-295): 14.1 µM (inactive)
- GI50 (LOX IMVI): 3.03 µM (inactive)
- GI50 (Hs-578T): 10.7 µM (inactive)
- GI50 (MOLT-4): 0.826 µM (active)
- GI50 (NCI-H23): 6.1 µM (inactive)
- GI50 (EKVX): 10.2 µM (inactive)
- GI50 (UO-31): 4.66 µM (inactive)
- GI50 (NCI/ADR-RES): 3.69 µM (inactive)
- GI50 (HCT-15): 2.19 µM
- GI50 (U-251): 4.22 µM (inactive)
- GI50 (MDA-MB-435): 4.43 µM (inactive)
- GI50 (RXF 393): 2.21 µM (inactive)
- GI50 (NCI-H522): 1.99 µM (inactive)
- GI50 (SK-MEL-5): 11.7 µM (inactive)
- GI50 (IGROV-1): 16.1 µM (inactive)
- GI50 (OVCAR-5): > 19.7 µM (inactive)
- GI50 (SK-OV-3): 16.4 µM (inactive)
- GI50 (PC-3): 8.89 µM (inactive)
- GI50 (HCC 2998): 4.29 µM (inactive)
- GI50 (SNB-75): 22.1 µM (inactive)
- GI50 (HT-29): 5.16 µM (inactive)
- GI50 (OVCAR-3): 6.97 µM (inactive)
- GI50 (M14): 4.53 µM (inactive)
- GI50 (NCI-H226): 8.55 µM (inactive)
- GI50 (UACC-257): 12.1 µM (inactive)
- GI50 (Malme-3M): 4.39 µM (inactive)
- GI50 (DU-145): 12.2 µM (inactive)
- GI50 (MDA-N): 4.69 µM (inactive)
- GI50 (CCRF-CEM): 1.42 µM (inactive)
- GI50 (OVCAR-4): 6.22 µM (inactive)
- GI50 (786-0): 3.42 µM (inactive)
- GI50 (HOP-92): 11.3 µM (inactive)
- GI50 (COLO 205): 3.44 µM (inactive)
- GI50 (BT-549): 6.55 µM (inactive)
- GI50 (T47D): 4.57 µM (inactive)
- GI50 (HOP-62): 16.2 µM (inactive)
- GI50 (MDA-MB-231): 14.8 µM (inactive)
- GI50 (SR): 0.321 µM (active)
- GI50 (NCI-H460): 17.5 µM (inactive)
- GI50 (SNB-19): 13.8 µM (inactive)
- GI50 (SW-620): 2.2 µM (inactive)
- GI50 (CAKI-1): 5.64 µM (inactive)
- GI50 (RPMI-8226): 1.66 µM (inactive)
- GI50 (SK-MEL-28): 2.94 µM (inactive)
- GI50 (UACC-62): 8.17 µM (inactive)
- GI50 (OVCAR-8): 2.6 µM (inactive)
- GI50 (TK-10): 7.69 µM (inactive)
- GI50 (SN12C): 9.93 µM (inactive)
- GI50 (SK-MEL-2): 14.6 µM (inactive)
- GI50 (SF-268): 11.4 µM (inactive)
- GI50 (A549): 19.5 µM (inactive)
- GI50 (SF-539): 5.69 µM (inactive)
- GI50 (HL-60): 1.93 µM (inactive)
- GI50 (MCF7): 7.41 µM (inactive)
- GI50 (HCT-116): 1.91 µM (inactive)
- GI50 (A498): 16.4 µM (inactive)
- GI50 (ACHN): 2.71 µM (inactive)
- GI50 (KM12): 10.6 µM (inactive)

Structure (SMILES): Nc1ccn(CC(O)c2cc3ccccc3[nH]2)c(=O)n1 (configuration not stated)
- GI50 (SF-295): > 100 µM (inactive)
- GI50 (LOX IMVI): > 100 µM (inactive)
- GI50 (Hs-578T): > 100 µM (inactive)
- GI50 (MOLT-4): > 100 µM (inactive)
- GI50 (NCI-H23): > 100 µM (inactive)
- GI50 (EKVX): > 100 µM (inactive)
- GI50 (UO-31): > 100 µM (inactive)
- GI50 (NCI/ADR-RES): > 100 µM (inactive)
- GI50 (HCT-15): > 100 µM
- GI50 (U-251): > 100 µM (inactive)
- GI50 (MDA-MB-435): > 100 µM (inactive)
- GI50 (RXF 393): > 100 µM (inactive)
- GI50 (NCI-H522): > 100 µM (inactive)
- GI50 (SK-MEL-5): > 100 µM (inactive)
- GI50 (IGROV-1): > 100 µM (inactive)
- GI50 (OVCAR-5): > 100 µM (inactive)
- GI50 (SK-OV-3): > 100 µM (inactive)
- GI50 (PC-3): > 100 µM (inactive)
- GI50 (HCC 2998): > 100 µM (inactive)
- GI50 (SNB-75): > 100 µM (inactive)
- GI50 (HT-29): > 100 µM (inactive)
- GI50 (OVCAR-3): > 100 µM (inactive)
- GI50 (M14): > 100 µM (inactive)
- GI50 (NCI-H226): > 100 µM (inactive)
- GI50 (UACC-257): > 100 µM (inactive)
- GI50 (Malme-3M): > 100 µM (inactive)
- GI50 (DU-145): > 100 µM (inactive)
- GI50 (MDA-N): > 100 µM (inactive)
- GI50 (CCRF-CEM): > 100 µM (inactive)
- GI50 (OVCAR-4): > 100 µM (inactive)
- GI50 (786-0): > 100 µM (inactive)
- GI50 (HOP-92): > 100 µM (inactive)
- GI50 (COLO 205): > 100 µM (inactive)
- GI50 (BT-549): > 100 µM (inactive)
- GI50 (T47D): > 100 µM (inactive)
- GI50 (HOP-62): > 100 µM (inactive)
- GI50 (MDA-MB-231): > 100 µM (inactive)
- GI50 (SR): > 100 µM (inactive)
- GI50 (NCI-H460): > 100 µM (inactive)
- GI50 (K562): > 100 µM (inactive)
- GI50 (SNB-19): > 100 µM (inactive)
- GI50 (SW-620): > 100 µM (inactive)
- GI50 (CAKI-1): > 100 µM (inactive)
- GI50 (RPMI-8226): > 100 µM (inactive)
- GI50 (SK-MEL-28): > 100 µM (inactive)
- GI50 (UACC-62): > 100 µM (inactive)
- GI50 (OVCAR-8): > 100 µM (inactive)
- GI50 (TK-10): > 100 µM (inactive)
- GI50 (SN12C): > 100 µM (inactive)
- GI50 (SK-MEL-2): > 100 µM (inactive)
- GI50 (SF-268): > 100 µM (inactive)
- GI50 (A549): > 100 µM (inactive)
- GI50 (SF-539): > 100 µM (inactive)
- GI50 (HL-60): > 100 µM (inactive)
- GI50 (MCF7): > 100 µM (inactive)
- GI50 (HCT-116): > 100 µM (inactive)
- GI50 (A498): > 100 µM (inactive)
- GI50 (ACHN): > 100 µM (inactive)
- GI50 (KM12): > 100 µM (inactive)
